The values that follow come from ChEMBL document CHEMBL5365400, “Design and synthesis of aminopyridine containing biaryls reducing c-MYC protein levels in cells” (Bioorg Med Chem Lett, 2023).

A short description of data set [1]: AUC (0 to infinity) in po dosed rat. It counts as ADME, organism-based. The arrangement: route po. The note with it: in vivo.
The nature of data set [2]: Cmax in po dosed rat. The arrangement: route po. The following applies: in vivo. It counts as ADME, organism-based.
The nature of data set [3]: Half life in po dosed rat. The class given is ADME, organism-based. The following applies: in vivo.
The nature of data set [4]: Volume of distribution at steady state in po dosed rat. It counts as ADME, organism-based. The note with it: in vivo.
The nature of data set [5]: Clearance in po dosed rat. It counts as ADME, organism-based. The following applies: in vivo.
A short description of data set [6]: Aqueous solubility of compound. It counts as physicochemical. The following applies: buffer.
Data set [7] can be described thus: Artificial membrane permeability of compound. The class given is physicochemical. The following applies: PAMPA; read-out: permeability.
Data set [8] can be described thus: Oral bioavailability in rat. The class given is ADME, organism-based. The following applies: in vivo.
A short description of data set [9]: Lipophilicity, log D of the compound at pH 7.4 by chromatographic method. It counts as physicochemical. The following applies: buffer.

Values after ≈ are worked out from the molar mass of the structure shown. Where only a bound is given, the exact number is not on record here.

Regarding `CCN(CC)c1ccc(-c2nc3ccccc3n2Cc2coc(C)n2)cn1`, the AUC(0-inf) (in general, the area under the concentration-time curve extrapolated to infinity) in data set [1] was found to be 126 ng·h/mL. Besides, in data set [2], the concentration peaked (Cmax) at 180 ng/mL. The half-life (as a rule, the time needed for the level to fall by half in the phase considered) in data set [3] is 13.2 min. This compound came in with a Vdss in data set [4] of 2.1 L/kg. In data set [5], the clearance came out at 160 mL/min/kg. The amount in solution in data set [6] (solubility) came to 65 µg/mL (≈ 180 µM). For the same compound, the Papp in data set [7] is 68 ×10⁻⁶ cm/s. For the same compound, the bioavailability (commonly the share of a dose that reaches the circulation, judged against a reference dose that is usually intravenous) in [8] is < 5%. The chromatographic logD (commonly lipophilicity estimated from chromatographic retention) in data set [9] is 5.1.
With `CCOCCn1c(-c2ccc(N(CC)CC)nc2)nc2ccccc21`, the solubility (usually the concentration that dissolves in the medium under given conditions) in data set [6] was determined as 67 µg/mL (≈ 198 µM). This compound also came in with a chromatographic logD in [9] of 6.
In the case of `CCOCCc1cc(Cl)cnc1-c1ccc(N(CC)CC)nc1`, the chromatographic logD in data set [9] stood at 7.4.
For `CCN(CC)c1ccc(-c2nn3cccnc3c2Cc2coc(C)n2)cn1`, in data set [6], the solubility was ≥ 142 µg/mL. In data set [9], this compound displayed a chromatographic logD of 4.9.
The matching figures for `CCN(CC)c1ccc(-c2nc3ncccn3c2Cc2coc(C)n2)cn1`: ≥ 112 µg/mL and 1.5.
Consider `Cc1nc(Cc2c(-c3ccc(N4[C@@H](C)CC[C@@H]4C)nc3)nc3cccnn23)co1`, for which, in [1], the AUC(0-inf) worked out at 108 ng·h/mL. Also, in [2], the Cmax (as a rule, the highest concentration seen after dosing) is 220 ng/mL. Further, in data set [3], the half-life is 14.4 min. In data set [4], the Vdss was 3.1 L/kg. Further, in data set [5], the clearance came out at 180 mL/min/kg. The same compound came in with a solubility in [6] of 80 µg/mL (≈ 206 µM). The Papp in data set [7] stood at 57 ×10⁻⁶ cm/s. In addition, the chromatographic logD in [9] came to 4.7.
In the case of `CCOCCn1c(-c2ccc(N(CC)CC)nc2)nc(Br)c1Br`, in data set [9], the chromatographic logD was determined as 6.9.
On the same count and under the same terms, the result for `CCOCCc1nc2ccccc2nc1-c1ccc(N(CC)CC)nc1` reads 7.4.
Turning to `CCN(CC)c1ccc(-c2nn3ccncc3c2Cc2coc(C)n2)cn1`, the solubility in data set [6] is > 65 µg/mL. The chromatographic logD in [9] stood at 4.9.
Regarding `CCN(CC)c1ccc(-c2nc3nccnc3n2Cc2coc(C)n2)cn1`, the chromatographic logD in data set [9] was found to be 3.7.
Consider `CCOCCc1cc2ccccc2nc1-c1ccc(N(CC)CC)nc1`, for which the concentration in solution in data set [6] (solubility) came to 38 µg/mL (≈ 109 µM). The same compound returned a chromatographic logD in data set [9] of 7.2.
With `CCOCCn1ccnc1-c1ccc(N(CC)CC)nc1`, the chromatographic logD in data set [9] stood at 4.2.
In data set [1], `CCN(CC)c1ccc(-c2nc3cccnn3c2Cc2coc(C)n2)cn1` showed an AUC(0-inf) of 94 ng·h/mL. In addition, in data set [2], the Cmax is 110 ng/mL. The same compound gave a half-life in data set [3] of 13.2 min. The compound also displayed a Vdss in [4] of 2.4 L/kg. The clearance in [5] is 190 mL/min/kg. In addition, the solubility in [6] was ≥ 187 µg/mL. Also, the Papp in data set [7] amounted to 68.5 ×10⁻⁶ cm/s. The chromatographic logD in data set [9] is 5.
The compound `CCOCCc1c(-c2ccc(N(CC)CC)nc2)c(=O)n(C)c2ccccc12` came in with a solubility in data set [6] of 90 µg/mL (≈ 237 µM). In [9], this compound had a chromatographic logD of 6.2.
The matching figures for `CCN(CC)c1ccc(-c2nc3ncncc3n2Cc2coc(C)n2)cn1`: ≥ 119 µg/mL and 3.
On to `CCN(CC)c1ccc(-n2nc3ccccc3c2Cc2coc(C)n2)cn1`, for which the solubility in [6] was determined as 92 µg/mL (≈ 255 µM). The chromatographic logD in [9] came out at 5.4.
For the compound `CCOCCc1cccnc1-c1ccc(N(CC)CC)nc1`, the chromatographic logD in data set [9] was 5.4.
`CCOCCc1c(-c2ccc(N(CC)CC)nc2)ncc2ccccc12` registered a solubility in data set [6] of 33 µg/mL (≈ 94.4 µM). The chromatographic logD in data set [9] came out at 7.
The matching figures for `CCOCCc1c(-c2ccc(N(CC)CC)nc2)c(=O)[nH]c2ccccc12`: 19 µg/mL (≈ 52 µM) and 5.
In turn, `CCOCCc1c(-c2ccc(N(CC)CC)nc2)cnc2ccccc12` came in with a chromatographic logD in data set [9] of 6.9.
With `CCOCCc1cc(-c2ccc(N(CC)CC)nc2)nc2ccccc12`, the chromatographic logD in data set [9] was 8.
`CCN(CC)c1ccc(-c2nc3cnccn3c2Cc2coc(C)n2)cn1`: the solubility in data set [6] was found to be 169 µg/mL (≈ 466 µM). For the same compound, the chromatographic logD in [9] was 4.2.
For the compound `CCN(CC)c1ccc(-c2nn3ccccc3c2Cc2coc(C)n2)cn1`, in data set [6], the solubility is 46 µg/mL (≈ 127 µM). The compound further showed a chromatographic logD in [9] of 5.4.
